# Molecular target: Human immunodeficiency virus 2
# Assay: In vitro inhibition of cytopathic effect was determined against HIV-2 ROD in MT-4 cells using MTT cytoprotection assay
row,SMILES,EC50 [µM]
1,CC(C)CCCC(C)[C@H]1CCC2C3CCC4C[C@@H](CCC=C(c5cc(Cl)c(OCc6cccc(C(=O)O)c6)c(C(=O)O)c5)c5cc(Cl)c(OCc6cccc(C(=O)O)c6)c(C(=O)O)c5)CC[C@]4(C)C3CC[C@@]21C (stereo not given in full) [Cosalane analogue],> 29
2,CC(C)CCCC(C)[C@H]1CCC2C3CCC4C[C@@H](CCC=C(c5cc(Cl)c(OCc6ccc(C(=O)O)cc6)c(C(=O)O)c5)c5cc(Cl)c(OCc6ccc(C(=O)O)cc6)c(C(=O)O)c5)CC[C@]4(C)C3CC[C@@]21C (stereo not given in full) [Cosalane analogue],22
3,"CC(C)CCCC(C)[C@H]1CCC2C3CCC4C[C@@H](CCC=C(c5cc(Cl)c(OCc6ccc(CC(=O)O)cc6)c(C(=O)O)c5)c5cc(Cl)c(OCc6ccc(CC(=O)O)cc6)c(C(=O)O)c5)CC[C@]4(C)C3CC[C@@]21C (stereo partly drawn) [3'',3'''-Dichloro-5'',5'''-dicarboxy-4'',4'''-di[p-(carboxymethyl)benzyloxy]-4',4'-diphenyl-3beta-(3'-buten-1-yl)cholestane]",83.8
4,"CC(C)CCCC(C)[C@H]1CCC2C3CCC4C[C@@H](CCC=C(c5cc(Cl)c(O)c(C(=O)N[C@@H](CC(=O)O)C(=O)O)c5)c5cc(Cl)c(O)c(C(=O)N[C@@H](CC(=O)O)C(=O)O)c5)CC[C@]4(C)C3CC[C@@]21C (stereo partly drawn) [(S)-2-(3-Chloro-5-{1-[3-chloro-5-((S)-1,2-dicarboxy-ethylcarbamoyl)-4-hydroxy-phenyl]-4-[(3S,10S,13R,17R)-17-(1,5-dimethyl-hexyl)-10,13-dimethyl-hexadecahydro-cyclopenta[a]phenanthren-3-yl]-but-1-enyl}-2-hydroxy-benzoylamino)-succinic acid]",122
5,"CC(C)CCCC(C)[C@H]1CCC2C3CCC4C[C@@H](CCC=C(c5cc(Cl)c(O)c(C(=O)O)c5)c5cc(Cl)c(O)c(C(=O)O)c5)CC[C@]4(C)C3CC[C@@]21C (stereo partly drawn) [5-{1-(3-carboxy-5-chloro-4-hydroxyphenyl)-4-[1-(1,5-dimethylhexyl)-9a,11a-dimethyl-(9aS,11aR)-perhydrocyclopenta[a]phenanthren-7-yl]-1-butenyl}-3-chloro-2-hydroxybenzoic acid]",4
6,"CC(C)CCCC(C)[C@H]1CCC2C3CCC4C[C@@H](CCC=C(c5cc(Cl)c(OCc6ccc(-c7cccc(C(=O)O)c7)cc6)c(C(=O)O)c5)c5cc(Cl)c(OCc6ccc(-c7cccc(C(=O)O)c7)cc6)c(C(=O)O)c5)CC[C@]4(C)C3CC[C@@]21C (stereo partly drawn) [3'',3'''-Dichloro-5'',5'''-dicarboxy-4'',4'''-di[p-(3-carboxy-phenyl)benzyloxy]-4',4'-diphenyl-3beta-(3'-buten-1-yl)cholestane]",> 95
7,COc1c(Cl)cc(Cc2cc(C(=CCC[C@H]3CC[C@@]4(C)C(CCC5C4CC[C@@]4(C)C5CC[C@@H]4C(C)CCCC(C)C)C3)c3cc(Cc4cc(Cl)c(OC)c(C(=O)O)c4)c(OC)c(C(=O)O)c3)cc(C(=O)O)c2OC)cc1C(=O)O (stereo not given in full) [Cosalane analogue],19.9
8,CC(C)CCCC(C)[C@H]1CCC2C3CCC4C[C@@H](CCC=C(c5cc(Cl)c(OCc6ccccc6C(=O)O)c(C(=O)O)c5)c5cc(Cl)c(OCc6ccccc6C(=O)O)c(C(=O)O)c5)CC[C@]4(C)C3CC[C@@]21C (stereo not given in full) [Cosalane analogue],> 37

# The next lines start with the values.
row,EC50 [µM],SMILES
1,69.6,"CC(C)CCCC(C)[C@H]1CCC2C3CCC4C[C@@H](CCC=C(c5cc(Cl)c(O)c(C(=O)N[C@@H](CCC(=O)O)C(=O)O)c5)c5cc(Cl)c(O)c(C(=O)N[C@@H](CCC(=O)O)C(=O)O)c5)CC[C@]4(C)C3CC[C@@]21C (stereo not given in full) [2-(3-Chloro-5-{1-[3-chloro-5-(1,3-dicarboxy-propylcarbamoyl)-4-hydroxy-phenyl]-4-[17-(1,5-dimethyl-hexyl)-10,13-dimethyl-hexadecahydro-cyclopenta[a]phenanthren-3-yl]-but-1-enyl}-2-hydroxy-benzoylamino)-pentanedioic acid]"
2,120,"CC(C)CCCC(C)[C@H]1CCC2C3CCC4C[C@@H](CCC=C(c5cc(Cl)c(O)c(C(=O)NCCC(=O)O)c5)c5cc(Cl)c(O)c(C(=O)NCCC(=O)O)c5)CC[C@]4(C)C3CC[C@@]21C (stereo not given in full) [3-(5-{1-[3-(2-Carboxy-ethylcarbamoyl)-5-chloro-4-hydroxy-phenyl]-4-[17-(1,5-dimethyl-hexyl)-10,13-dimethyl-hexadecahydro-cyclopenta[a]phenanthren-3-yl]-but-1-enyl}-3-chloro-2-hydroxy-benzoylamino)-propionic acid]"
3,73,"CC(C)CCCC(C)[C@H]1CCC2C3CCC4C[C@@H](CCCC(c5cc(Cl)c(O)c(C(=O)N[C@@H](CCC(=O)O)C(=O)O)c5)c5cc(Cl)c(O)c(C(=O)N[C@@H](CCC(=O)O)C(=O)O)c5)CC[C@]4(C)C3CC[C@@]21C (stereo not given in full) [2-(3-Chloro-5-{1-[3-chloro-5-(1,3-dicarboxy-propylcarbamoyl)-4-hydroxy-phenyl]-4-[17-(1,5-dimethyl-hexyl)-10,13-dimethyl-hexadecahydro-cyclopenta[a]phenanthren-3-yl]-butyl}-2-hydroxy-benzoylamino)-pentanedioic acid]"
4,> 66,COc1ccc(C(=O)Nc2cc(C(=CCC[C@H]3CC[C@@]4(C)C(CCC5C4CC[C@@]4(C)C5CC[C@@H]4C(C)CCCC(C)C)C3)c3cc(NC(=O)c4ccc(OC)c(C(=O)O)c4)c(OC)c(C(=O)O)c3)cc(C(=O)O)c2OC)cc1C(=O)O (stereo not given in full) [Cosalane analogue]
5,> 62,"CC(C)CCCC(C)[C@H]1CCC2C3CCC4C[C@@H](CCC=C(c5cc(Cl)c(O)c(C(=O)N[C@@H](Cc6ccccc6)C(=O)O)c5)c5cc(Cl)c(O)c(C(=O)N[C@@H](Cc6ccccc6)C(=O)O)c5)CC[C@]4(C)C3CC[C@@]21C (stereo partly drawn) [2-(5-{1-{3-[1-carboxy-2-phenyl-(1S)-ethylcarbamoyl]-5-chloro-4-hydroxyphenyl}-4-[1-(1,5-dimethylhexyl)-9a,11a-dimethylperhydrocyclopenta[a]phenanthren-7-yl]-1-butenyl}-3-chloro-2-hydroxyphenylcarboxamido)-3-phenyl-(2S)-propanoic acid]"
6,70.4,"CC(C)CCCC(C)[C@H]1CCC2C3CCC4C[C@@H](CCCC(c5cc(Cl)c(OCc6ccc(C(=O)O)cc6)c(C(=O)O)c5)c5cc(Cl)c(OCc6ccc(C(=O)O)cc6)c(C(=O)O)c5)CC[C@]4(C)C3CC[C@@]21C (stereo partly drawn) [3'',3'''-Dichloro-5'',5'''-dicarboxy-4'',4'''-di[p-carboxybenzyloxy]-4',4'-diphenyl-3beta-(1-butyl)cholestane]"
7,> 100,"CC(C)CCCC(C)[C@H]1CCC2C3CCC4C[C@@H](CCC=C(c5cc(Cl)c(OCc6ccc(-c7ccc(C(=O)O)cc7)cc6)c(C(=O)O)c5)c5cc(Cl)c(OCc6ccc(-c7ccc(C(=O)O)cc7)cc6)c(C(=O)O)c5)CC[C@]4(C)C3CC[C@@]21C (stereo partly drawn) [3'',3'''-Dichloro-5'',5'''-dicarboxy-4'',4'''-di[p-(4-carboxy-phenyl)benzyloxy]-4',4'-diphenyl-3beta-(3'-buten-1-yl)cholestane]"

# Reference: BindingDB's records for doi:10.1021/jm000290u (Purdue University, 2001)
